From article PMC10424179, “Disrupting Kaposi’s Sarcoma-Associated Herpesvirus (KSHV) Latent Replication with a Small Molecule Inhibitor” (Journal of Medicinal Chemistry, 2023)

Assays:
[1] = target: T1, oligomerization-deficient mutant of a LANA C-terminal protein fragment (aa 1008–1146) (Human herpesvirus 8 (Kaposi's sarcoma-associated herpesvirus), UniProt Q76SB0); assay: Microscale thermophoresis (MST) binding assay; parameters: species or system Kaposi's sarcoma-associated herpesvirus (KSHV); details: read-out: KD value (MST); LANA aa 1008–1146 mutant; means of at least three replicates
T1 sequence (Q76SB0 1008-1146): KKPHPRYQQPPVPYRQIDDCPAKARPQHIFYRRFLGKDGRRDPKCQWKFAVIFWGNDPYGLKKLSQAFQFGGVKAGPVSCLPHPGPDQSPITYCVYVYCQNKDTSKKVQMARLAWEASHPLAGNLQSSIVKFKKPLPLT
From the text: (§1) In these assays, an oligomerization-deficient mutant of a LANA C-terminal protein fragment (aa 1008–1146) and an oligonucleotide representing LANA-binding site (LBS) 1 were used, which are convenient to use and handle for the described biophysical methods, while maintaining the essential DNA-binding interface.[25]
(§2) Equation y = A2 + (A1-A2)/(1 + (x/x0)^p)
1.3 Microscale Thermophoresis (MST) Assay
Microscale Thermophoresis Assay was done as mentioned in a previous publication. 2

[2] = target: LANA–DNA interaction (oligomerization-deficient LANA DBD aa 1008–1146 mutant / LBS1) (Human herpesvirus 8 (Kaposi's sarcoma-associated herpesvirus), UniProt Q76SB0); assay: Electrophoretic mobility shift assay (EMSA), LANA DBD mutant with LBS1 oligonucleotide; assay type: biochemical, Kaposi's sarcoma-associated herpesvirus (KSHV)
Method: as §1
Equation y = A2 + (A1-A2)/(1 + (x/x0)^p) […]
(§3) 1.4 Electrophoretic Mobility Shift Assay (EMSA)
(§4) The EMSA was carried out with slight modific ations as described previously 2 based on the assay in Hellert et al. (2013). 3 His-tagged oligomerization-deficient LANA DBD (aa1008-1146) mutant protein or LANA DBD (aa934-1162) wild type protein (200 nM final) was incubated with a 5´-Dy682-labeled double stranded DNA probe (IBA Lifesciences) (20 nM final) for 30 minutes at RT in the dark. The reaction buffer consisted of 30 mM Tris HCl pH 7.5, 50 mM KCl, 10 mM MgCl2, 1 mM DTT, 1 mM EDTA, 10% glycerol, 0.25% Tween20, 0.5 mg/mL BSA and 0.05 mg/mL poly(dI-dC). […]
(§5) dark. 10 µL of the reaction was run on a pre -run native 5% acrylamide gel for 45 minutes at 100V with tris-borate-EDTA buffer. Images of the gels were acquired and analysed with the Odyssey (Licor) using the Image Studio software.
(§6) Fig S2: Gels of EMSA experiments at 250 μM for all compounds (A) and dose-dependent curves for compound 20 using LANA DBD mutant (B) and LANA wildtype (C) as well as LBS1. Values are means […]
(§7) Gleichung y = A2 + (A1-A2)/(1 + (x/x0)^p) […]

Kinetic solubility = assay type: physicochemical; details: PBS with 1% DMSO; 1% DMSO in PBS, pH 7.4
Method: (§8) The next step was an in vitro ADMET profiling of the best seven compounds so far: 9, 11, 14, 19, 20, 21, and 27. The compounds were tested for their kinetic solubility (1% DMSO in PBS, pH 7.4), lipophilicity (chromatographic Log D7.4 value), cellular permeability (using Caco-2 cells), and metabolic stability (using mouse and human liver S9 fractions) (see Table 3).
The desired compounds were sequentially diluted in DMSO in a 96-well plate. 1.5 µL of each well were transferred into another 96-well plate and mixed with 148.5 µL of PBS. Plates were shaken for 5 min at 600 rpm at room temperature (r.t.), and the absorbance at 620 nm was measured. Absorbance values were normalized by blank subtraction and plotted using GraphPad Prism 8.4.2 (GraphPad Software, San Diego, CA, USA). Solubility (S) was determined based on the First X value of AUC function using a threshold of 0.005. […]

Chromatographic LogD7.4 = assay type: physicochemical; details: reversed-phase HPLC, NUCLEODUR C18 Pyramid column; pH 7.4, HPLC-MS based; read-out: Chrom. LogD7.4
Method: as §8, with “3). […]” for “3).”
LogD7.4 was analyzed using an HPLC−MS based method. The retention time of 12 compounds with known LogD7.4 was determined and plotted toward their LogD7.4. Linear regression was used to determine the LogD7.4 of unknown compounds. Analysis was performed using a Dionex Ultimate 3000 HPLC system coupled to a TSQ Quantum Access MAX (Thermo Fisher, Dreieich, Germany) with the following conditions: EC150/2 NUCLEODUR C18 Pyramid column, 5 μM (Macherey Nagel, Düren, Germany); eluent A: 50 mM NH4OAc pH 7.4, eluent B: acetonitrile, and flow: 0.6 mL/min. The gradient was set to 0−100% B from 0 to 2.5 min, […]
are means of two replicates. […]

[3] = Metabolic stability in human liver S9 fraction; assay type: in vitro ADME; details: human liver S9, 1 μM compound
Method: as §8, with “3). […]” for “3).”
1.7 Metabolic Stability in Liver S9 Fractions
For the evaluation of combined phase I and phase II metabolic stability, the compound (1 μM) was incubated with 1 mg/mL pooled mouse liver S9 fraction (Xenotech, Kansas City, USA) or human liver S9 fraction (Corning, USA), 2 mM NADPH, 1 mM UDPGA, 10 mM MgCl 2, 5 mM GSH and 0.1 mM PAPS at 37 °C for 240 min. The metabolic stability of testosterone, verapamil and ketoconazole were determined in parallel to confirm the enzymatic activity of mouse S9 fractions, for human S9 testosterone, diclofenac and propranolol were used. The incubation was stopped after defined time points by precipitation of aliquots of S9 enzymes with 2 volumes of cold acetonitrile containing internal standard (150 nM diphenhydramine). Samples were stored on ice until the end of the incubation and precipitated protein was removed by centrifugation (15 min, 4 °C, 4,000 g). Concentration of the remaining test compound at the different time points was analyzed by HPLC-MS/MS (TSQ Quantum Access MAX, Thermo Fisher, Dreieich, Germany) and used to determine half -life (t1/2). Values are means of three

[4] = target: T2, LANA–DNA interaction (LANA DBD aa934-1162 wild type / LBS1) (Human herpesvirus 8 type P, UniProt Q9QR71); assay: EMSA, LANA DBD wild type with LBS1; assay type: biochemical, Kaposi's sarcoma-associated herpesvirus (KSHV)
T2 construct: LANA DBD (aa934-1162) wild type protein (200 nM final) was incubated with
Method: as §2
Fig S1: Binding affinity curves via MST for all compounds. Values are means of at least three replicates.
as §3, §4, §5, §6, §7

T2 sequence (Q9QR71 901-1129): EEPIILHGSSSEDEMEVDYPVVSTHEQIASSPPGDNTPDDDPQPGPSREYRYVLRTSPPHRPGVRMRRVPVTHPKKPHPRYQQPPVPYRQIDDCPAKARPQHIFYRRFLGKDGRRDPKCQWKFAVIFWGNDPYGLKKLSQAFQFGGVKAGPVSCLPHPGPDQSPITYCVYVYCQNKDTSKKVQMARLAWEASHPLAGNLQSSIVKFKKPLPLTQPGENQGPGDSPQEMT

COc1ccc(-c2cc(C)c(-n3cc(-c4ccc(C(=O)O)cc4)nn3)cn2)c(Cl)c1 [Compound 20]
Kd [1]: 14.1 ± 3.9 µM
Inhibition (EMSA, LBS1) @250 μM ([2]; compound at 250 μM, LBS1 oligonucleotide, LANA aa 1008–1146 mutant): 93%
IC50 ([2]; read-out: x0 of logistic fit, dose-dependent EMSA curve (converted), Fig S2, LBS1, curve with A2 95.7, assigned to LANA DBD mutant): 43.7 µM
solubility kinetic at 5 min (Kinetic solubility): > 200 µM
chromatographic logD (Chromatographic LogD7.4): 0.75
microsomal CLint at 1 µM ([3]; read-out: MetStab Human Liver S9 Clint): < 5.8 µL/min/mg
half-life at 1 µM ([3]; read-out: MetStab Human Liver S9 t1/2): > 2 h
IC50 [4]: 205 µM
